Experimental data published in the supplement of paper PMC10307832.

Legend:
Assay in all cases: relative viability (nuclei count vs DMSO), 5 days (fraction); higher = more cells survive
[1] = compound: CC(C)N(CCCNC(=O)Nc1ccc(C(C)(C)C)cc1)C[C@H]1O[C@@H](n2ccc3c(N)ncnc32)[C@H](O)[C@@H]1O + Nc1nc2[nH]cc(CCc3ccc(C(=O)N[C@@H](CCC(=O)O)C(=O)O)cc3)c2c(=O)[nH]1 [Pemetrexed] (partner 0.2 µM)
Procedure, shortened: (§1)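 Relative viability was taken as the ratio of nuclei in treated wells to nuclei in vehicle wells. Lung cancer cell lines in 1536-well plates received compounds by pin tool one day after seeding, either one drug alone or a fixed anchor-drug dose plus five library-drug doses (not always all listed) in √10 steps. Nuclei were counted on 4× images after 5 days of treatment, and values are medians of duplicate plates.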

[2] = compound: CC(C)N(CCCNC(=O)Nc1ccc(C(C)(C)C)cc1)C[C@H]1O[C@@H](n2ccc3c(N)ncnc32)[C@H](O)[C@@H]1O + Cc1cc(Nc2cc(N3CCN(C)CC3)nc(Sc3ccc(NC(=O)C4CC4)cc3)n2)n[nH]1 [Tozasertib] (partner 0.1 µM)
Procedure, shortened: as §1

[3] = compound: CC(C)N(CCCNC(=O)Nc1ccc(C(C)(C)C)cc1)C[C@H]1O[C@@H](n2ccc3c(N)ncnc32)[C@H](O)[C@@H]1O + COc1cc2c(Oc3ccc(NC(=O)C4(C(=O)Nc5ccc(F)cc5)CC4)cc3F)ccnc2cc1OCCCN1CCOCC1 [Foretinib] (partner 0.25 µM)
Procedure, shortened: as §1

[4] = compound: CC(C)=CC[C@@H](O)C1=CC(=O)c2c(O)ccc(O)c2C1=O [Shikonin] + Nc1nc2[nH]cc(CCc3ccc(C(=O)N[C@@H](CCC(=O)O)C(=O)O)cc3)c2c(=O)[nH]1 [Pemetrexed] (partner 0.2 µM)
Procedure, shortened: as §1

Cell Line | relative viability ([1]; first compound 0.08 µM) | relative viability ([1]; first compound 0.253 µM) | relative viability ([1]; first compound 0.8 µM) | relative viability ([1]; first compound 2.53 µM) | relative viability ([1]; first compound 8 µM) | relative viability ([2]; first compound 0.08 µM) | relative viability ([2]; first compound 0.253 µM) | relative viability ([2]; first compound 0.8 µM) | relative viability ([2]; first compound 2.53 µM) | relative viability ([2]; first compound 8 µM) | relative viability ([3]; first compound 0.08 µM) | relative viability ([3]; first compound 0.253 µM) | relative viability ([3]; first compound 0.8 µM) | relative viability ([3]; first compound 2.53 µM) | relative viability ([3]; first compound 8 µM) | relative viability ([4]; first compound 0.01 µM) | relative viability ([4]; first compound 0.1 µM) | relative viability ([4]; first compound 0.3162 µM) | relative viability ([4]; first compound 1 µM)
NCI-H3122 | 0.211 | 0.194 | 0.198 | 0.192 | 0.199 | 0.477 | 0.489 | 0.382 | 0.383 | 0.353 | 0.887 | 0.951 | 0.979 | 0.922 | 0.887 | 0.215 | 0.219 | 0.209 | 0.209
NCI-H1755 | 0.391 | 0.447 | 0.387 | 0.489 | 0.348 | 0.637 | 0.564 | 0.464 | 0.573 | 0.54 | 0.92 | 0.909 | 0.925 | 0.857 | 0.868 | 0.453 | 0.409 | 0.477 | 0.417
HCC-78 | 0.869 | 0.848 | 0.928 | 0.844 | 0.846 | 0.371 | 0.383 | 0.351 | 0.366 | 0.484 | 0.509 | 0.497 | 0.5 | 0.524 | 0.602 | 0.91 | 0.844 | 0.941 | 0.893
LOU-NH91 | 0.359 | 0.373 | – | 0.439 | 0.427 | 0.635 | 0.662 | 0.314 | 0.682 | 0.607 | 0.858 | 0.946 | 0.571 | 0.958 | 0.924 | 0.367 | 0.381 | 0.381 | 0.458
NCI-H322M | 0.634 | 0.609 | 0.617 | 0.593 | 0.631 | 0.484 | 0.434 | 0.493 | 0.499 | 0.499 | 0.904 | 0.894 | 0.94 | 1.02 | 1.06 | 0.575 | 0.591 | 0.6 | 0.777
HCC-827 | 0.257 | 0.284 | 0.279 | 0.267 | 0.269 | 0.423 | 0.425 | – | 0.436 | 0.412 | 0.907 | 1.07 | – | 0.989 | 0.91 | 0.23 | 0.283 | 0.234 | 0.259
NCI-H1975 | 0.303 | 0.296 | 0.292 | 0.3 | 0.286 | 0.696 | 0.765 | 0.741 | 0.597 | 0.569 | 0.853 | 0.916 | 0.871 | 0.707 | 0.765 | 0.315 | 0.298 | 0.286 | 0.283
NCI-H1651 | 0.654 | 0.527 | 0.57 | 0.599 | 0.601 | 0.624 | 0.752 | 0.628 | 0.725 | 0.579 | 0.876 | 0.79 | 0.86 | 0.871 | 0.808 | 0.631 | 0.748 | 0.606 | 0.652
NCI-H460 | 0.0586 | 0.06 | 0.0609 | 0.0624 | 0.0643 | 0.402 | 0.435 | 0.346 | 0.488 | 0.453 | 1.05 | 1.1 | 1.03 | 1.05 | 0.996 | 0.0561 | 0.0603 | 0.06 | 0.063
LCLC-103H | 0.417 | 0.454 | 0.452 | 0.413 | 0.51 | 0.603 | 0.519 | 0.432 | 0.516 | 0.478 | 0.704 | 0.744 | 0.717 | 0.627 | 0.71 | 0.436 | 0.49 | 0.46 | 0.477
LCLC-97TM1 | 0.179 | 0.175 | 0.18 | 0.163 | 0.183 | 0.21 | 0.17 | 0.258 | 0.248 | 0.21 | 0.927 | 0.821 | 1.02 | 0.999 | 0.868 | 0.123 | 0.162 | 0.155 | 0.16
PC-14 | 0.149 | 0.171 | 0.138 | 0.141 | 0.163 | 0.529 | 0.598 | 0.598 | 0.6 | 0.551 | 0.912 | 0.944 | 0.896 | 0.95 | 0.792 | 0.15 | 0.137 | 0.125 | 0.135
NCI-H1355 | 0.964 | 1.05 | 0.761 | 1.03 | 0.976 | 0.581 | 0.536 | 0.574 | 0.501 | 0.55 | 0.755 | 0.839 | 0.933 | 0.941 | 0.972 | 1.13 | 1.15 | 1.02 | 1.06
HOP-62 | 0.323 | 0.433 | 0.39 | 0.31 | 0.356 | 0.369 | 0.375 | 0.335 | 0.309 | 0.367 | 0.974 | 1.23 | 1.02 | 1.06 | 0.945 | 0.432 | 0.353 | 0.349 | 0.278
NCI-H2087 | 0.718 | 0.653 | 0.714 | 0.735 | 0.662 | 0.243 | 0.252 | 0.243 | 0.259 | 0.207 | 1.1 | 1.32 | 1.22 | 1.14 | 1.22 | 0.675 | 0.706 | 0.626 | 0.69
SW 900 | 0.472 | 0.469 | – | 0.475 | 0.441 | 0.683 | 0.696 | – | 0.543 | 0.438 | 0.737 | 0.893 | – | 1.09 | 0.952 | 0.422 | 0.548 | 0.468 | 0.535
